Test results from patent US20020173551A1 (priority 1998, published 2002).
Counter-ions that a name gives are not always drawn.

Legend:
[1] = tested on: genital Herpes Simplex viral infection; assay: Case reports: recurrent genital herpes treated with bupropion; type: in vivo, humans
Source text: There were 5-6 recurrences per year. […] The fourth case was patient one, a student with extensive genital herpes. They have had 4 attacks thus far, which have been treated initially with acyclovir and then later with famciclovix. The normal duration of these attacks on these agents was 5-7 days. They were unable to attend classes and took a further 2 weeks before they felt normal. A big feature of their illness is the severe fatigue that precedes and follows their attacks. […] They had not developed any post-[…] fatigue either. They later used a further 2 day course when they felt tingling.

[2] = tested on: HSV I / herpes labialis (cold sores); assay: Case reports: herpes labialis (cold sores) treated with bupropion; type: in vivo, humans
Source text: […] They have approximately 1 episode per month related to menstrual periods. This has been occurring for the last 6 years and has lasted for at least a week of every month. The severity varied according to […] general state of health and stress levels. The outbreaks lasted at least one week and have made a significant impact on their psychological state. They have not been on systemic therapy.
The third case was patient five, a entrepreneur. They have a coffee shop chain. They are thus very visible and they are very self-conscious of even minor blemishes on their face. They have mild herpes labialis (cold sores), which occurs approximately 5 times a year. They have taken intermittent acyelovir and has even considered continuous acyclovir, because of their image.
[…] They had been paying for acyclovir privately, despite the cost, because of their wish to suppress their frequent and unsightly lesions. […] An attack was treated within 24 hours on the two agents.
[…] This involved the nares, upper and lower lips bilaterally. […] Their partner also developed scarlet fever as well. […] It should be noted that this patient is usually very intolerant of medications and tends to vomit easily.
Her normal herpes labialis lasted between 5 and 7 days.

[3] = tested on: herpes simplex II; assay: Case report: recurrent buttock herpes simplex II; type: in vivo, humans; settings: Example 6, case two
Source text: The sixth case was patient two, a reporter. […] This was given for recurrent buttock herpes simplex II, This was ceased and after 1 year, the hypertension and renal impairment reverted to normal.

[4] = Side effects observed in the treated cases; type: in vivo, humans
Source text: The sixth case was patient two, a reporter. […] This was given for recurrent buttock herpes simplex II, This was ceased and after 1 year, the hypertension and renal impairment reverted to normal. […] This involved the nares, upper and lower lips bilaterally. Even after topical acyclovir, the course of the illness was 2 weeks of significant outbreak. […] Their partner also developed scarlet fever as well. […] It should be noted that this patient is usually very intolerant of medications and tends to vomit easily.

[5] = tested on: herpes virus; assay: Overall assessment of the case series against other anti-viral agents; type: in vivo, humans; settings: treatment and prevention of infections caused by the herpes virus
Source text: The physician conducting the above trials has reported that the results thus far have been beyond expectation. They are commented that “not only has there been a success from a completely unlikely agent, but there has also been a success beyond that achieved by the well-established anti-viral agents.”

[6] = tested on: HSV I / herpes labialis (cold sores); assay: Case reports: herpes labialis (cold sores) treated with bupropion; type: in vivo, humans; remark: listed apart in the source
[7] = tested on: neuronal uptake of noradrenahne (NA); settings: cited from earlier work
[8] = tested on: neuronal uptake of dopamine (DA); settings: cited from earlier work
[9] = tested on: monoamine oxidase; settings: cited from earlier work
[10] = Example 1, case gamma, 4 doses of 150 mg over 2 days
[11] = Example 4, case one, 300 mg twice daily for 2 days

CC(NC(C)(C)C)C(=O)c1cccc(Cl)c1 (racemic) [bupropion, (±)-1-(3-chlorophenyl)-2-[(1,1-dimethylethyl)-amino)-1-propanone hydrochloride]
time until the attack was aborted ([1]; Example 1, case gamma, first use of bupropion): ≤ 2 days
outcome of an attack about to commence [1, 10]: aborts the attack completely, or reduces it to a small crop of lesions
time to complete healing of the small crop of lesions [1, 10]: ≤ 48 h
recurrence since commencing the regime ([1]; Example 1, case gamma, over one year): There has not been a single significant recurrence
lesions after treatment [1, 11]: lesions had cleared completely
post-viraemia fatigue [1, 11]: had not developed any post-viraemia fatigue
eruptions after a further course at tingling ([1]; Example 4, case one, further 2 day course): did not develop any eruptions
complete resolution of lesions (day of outbreak) ([2]; Example 2, case four, HSV I cold sores, 300 mg twice daily for 2 days from day 2 of outbreak): ≤ 3 days
minor recurrence one week later ([2]; Example 2, case four, similar dosage): aborted by a similar dosage within the first day
eruptions ([2]; Example 3, case five, 2 tablets of 150 mg when they feel the tingling): has not had an eruption in the last 3 months
outbreak after tingling of the lip ([2]; Example 5, case beta, 150 mg every 12 hours for 2 days, two episodes): No outbreak of herpes labialis occurred
lesion by day 5 ([2]; Example 7, case alpha): hardly noticeable
time after which the lesion started disappearing ([2]; Example 7, case alpha): 3 days
progression of lesions ([2]; Example 7, case three, within 36 hours of taking 300 mg): did not progress from their initial lesion
eruptions ([3]; taken at onset of pre-outbreak symptoms): has not had an eruption since
concurrent scarlet fever ([4]; Example 7, case alpha): did not worsen
side effects ([4]; Example 7, case three, usually very intolerant of medications): No side effects were noticed
comparison with other anti-viral agents such as acydovir and famciclovir [5]: superior to many other anti-viral agents
time until the lesion had dried out ([6]; Example 8, 150 mg twice daily for 2 days): ≤ 24 h
further time until the lesion was scabbing ([6]; Example 8, 150 mg twice daily for 2 days, after drying out): ≤ 12 h
time to complete resolution (later) ([6]; Example 8, 150 mg twice daily for 2 days, after scabbing): 3 days
inhibition of neuronal uptake of noradrenaline [7]: relatively weak inhibitor
inhibition of neuronal uptake of dopamine [8]: relatively weak inhibitor
inhibition of monoamine oxidase [9]: does not inhibit

CC(=O)OCC(CCn1cnc2cnc(N)nc21)COC(C)=O [Famciclovir]
interval between minor outbreaks (approximately once every) ([3]; continuous therapy): 2-3 months
suppression of disease ([3]; continuous therapy): successfully suppressed their disease

Nc1nc2c(ncn2COCCO)c(=O)[nH]1 [acyclovir]
effect in aborting the attacks ([1]; Example 1, case gamma): partially effective
duration of the attacks ([1]; Example 1, case gamma, recurrent genital Herpes Simplex, reduced from 2 weeks): 5 to 7 days
duration of attacks ([2]; Example 3, case five, mild herpes labialis, taken with the tingling): 3 days
severity of attacks ([2]; Example 3, case five, taken with the tingling): barely detectable
lesions during suppressive therapy ([2]; Example 5, case beta, recurrent herpes labialis): breakthrough lesions
course of the illness (significant outbreak) ([2]; Example 7, case three, severe herpes labialis, topical): 2 weeks
adverse effects ([4]; Example 6, case two, given for recurrent buttock herpes simplex II, reverted to normal 1 year after ceasing): developed hypertension and mild renal impairment
effect of topical therapy ([6]; Example 8, medical receptionist, herpes labialis, topical, in the past): unhelpful
